This is an account of results in patent US5288872A, “Compounds for treatment of neurodegenerative diseases” (priority 1992, dated 1994).

Structures are written as SMILES.

Assay [1] concerns synaptosomes from the striatal area of rat brain. The assay is described as follows: Dopamine release from striatal synaptosomes of rat brain. The format is cell-based, rat (Sprague-Dawley). The settings on record: read-out: Dopamine Release (percent release relative to S(-)nicotine). The method, then:
Dopamine release was measured by preparing synaptosomes from the striatal area of rat brain generally obtained from Sprague-Dawley rats according to the procedures set forth by Nagy, et al., J. Neurochem., Vol. 43, pp. 1114-1123 (1984). Striata from 4 rats were homogenized in 2 ml of 0.32M sucrose buffered with 5 mM HEPES (pH 7.5), using a glass-teflon tissue grinder. The homogenate was diluted to 5 ml with additional homogenization solution and centrifuged at 1000×g for 10 min. This procedure was repeated on the new pellet and the resulting supernatant was centrifuged at 12,000×g for 20 min. […] Using this method, 30 to 90 percent of the dopamine was taken up into the synaptosomes, as determined by scintillation counting following filtration through glass fiber filters soaked with 0.5 percent polyethyleneimine. […] After the addition of a 0.2 ml of a 20 μM solution of ligand, the perfusate was collected into scintillation vials at 1 min. intervals and the dopamine released was quantified by scintillation counting. Peaks of radioactivity released above background were summed and the average basal release during that time was subtracted from the total. Release was expressed as a percentage of release obtained with an equal concentration of S(-)nicotine.

The target of a further assay is nicotinic receptors. Description: Inhibition of L-[^3 H] nicotine binding to mouse brain membrane preparations. Also noted: species or system mouse (DBA strain). Particulars: mouse brain membranes, 2 hr. incubation at 4° C., pH 7.5, racemic mixture of ligand. The method, then:
Mice (DBA strain) were maintained on a 12 hour light/dark cycle and were allowed free access to water and food supplied by Wayne Lab Blox, Madison, Wis. Animals used in the present studies were 60 to 90 days of age and weighed 20 to 25 g. Brain membrane preparations were obtained from pooled brain tissue of both males and females.
Mice were killed by cervical dislocation. Brains were removed and placed on an ice-cold platform. […] Protein was determined by the method of Lowry, et al., J. Biol. Chem., Vol. 193, pp. 265-275 (1951), using bovine serum albumin as the standard.
The binding of L-[^3 H] nicotine was measured using a modification of the method of Romano, et al., Science, Vol. 210, pp. 647-650 (1980) as described previously by Marks, et al., Mol. Pharmacol., Vol. 30, pp. 427-436 (1986). The binding of L-[^3 H] nicotine was measured using a 2 hr. incubation at 4° C. […] Nonspecific binding was determined by inclusion of 10 μM nonradioactive nicotine in the incubations. The inhibition of L-[^3 H] nicotine binding by test compounds was determined by including one of eight different concentrations of the test compound in the incubation. […] Inhibition constants (Ki values) were calculated from the IC50 values using the method of Cheng, et al., Biochem. Pharmacol., Vol. 22, pp. 3099-3108 (1973).

The term Ki denotes a measure of affinity in units of concentration, obtained from inhibition or displacement. For `CC(=O)C1=CCC2CCC1N2C` (stereo not shown) [Ferruginine, ferruginine], the Emax in assay [1] is 15%. At nicotinic receptors, the Ki was found to be 3100 ± 500 nM.

As for `CC(=O)C1=CCC2CCC1N2` (stereo not shown) [Norferruginine, norferruginine], the Emax in assay [1] came to 25%. In addition, the Ki at nicotinic receptors is 1100 ± 300 nM.
